Experimental data published in paper PMC10917278, “Structural insights into the modulation Of SOD1 aggregation By a fungal metabolite Phialomustin-B: Therapeutic potential in ALS” (PLOS ONE, 2024).

What was measured:
Assay type in all cases: biochemical
[1] = molecular target: T1, SOD1^A4V (Homo sapiens, UniProt P00441, A5V); experiment: Analytical size-exclusion chromatography (SEC) aggregation assay, SOD1^A4V
T1 construct: The full-length constructs of SOD1-wild type (aa: 1–145) and its corresponding SOD1 disease mutant, SOD1^A4V; His-tag (cleaved yes); made in house; host or cells: E. coli BL21 DE3
Method: Fig 6 Aggregation studies of metallated and reduced SOD1^WT and SOD1^A4V on treatment with PB. ThT fluorescence was monitored during the co-incubation of metallated SOD1^WT (50 μM) (a) or SOD1^A4V (50 μM) (b) with PB at 1:30 molar ratio at 37 °C with continuous shaking, under reduced conditions. The values were normalized to the maximal ThT intensity elicited by SOD1^WT or SOD1^A4V and fitted to a Boltzmann sigmoidal equation. The control and PB-treated species were compared to analyse the effects of PB on the aggregation of SOD1^WT and SOD1^A4V. Error bars indicate the standard deviation. Analytical SEC of metallated SOD1^WT (50 μM) (c) and SOD1^A4V (50 μM) (d) with PB were analyzed under reducing conditions before and after 24 hrs and 48 hrs incubation at 37 °C. The first peak eluting at the volume was denoted as oligomerized SOD1^WT/SOD1^A4V (L). The second, third, and fourth peaks were calculated as trimer (T), dimer (D), and monomer (M) species of SOD1^WT/SOD1^A4V running at 14.5 ml, 15.7 ml, and 16.5 ml, respectively. […]
Fig 7 Aggregation studies of de-metallated and reduced SOD1^WT and SOD1^A4V on treatment with PB. ThT fluorescence was monitored during the co-incubation of de-metallated SOD1^WT (50 μM) (a) or SOD1^A4V (50 μM) (b) with PB at 1:30 molar ratio at 37 °C with continuous shaking, under reduced conditions. […] Analytical SEC of de-metallated SOD1^WT (50 μM) (a) and SOD1^A4V (50 μM) (b) with PB were analysed under reducing conditions before and after 24 hrs and 48 hrs incubation at 37 °C. […] The second, third, and fourth peaks were calculated as trimer (T), dimer (D), and monomer (M) species of SOD1^WT/SOD1^A4V running at 14.5 ml, 15.7 ml, and 16.5 ml, respectively. […]
The anti-aggregation activity of PB was validated on the SOD1^WT and the disease mutant (SOD1^A4V) through size exclusion chromatography. The analytical size-exclusion chromatography is a gold standard method for comprehensively evaluating protein species through their molecular weight variations detected by the protein peaks’ elution volume (Ve). […]

[2] = molecular target: T2, SOD1^WT (Homo sapiens, UniProt P00441); experiment: Thioflavin T (ThT) fluorescence aggregation assay, SOD1^WT; details: 37 °C, reduced conditions
T2 construct: The full-length constructs of SOD1-wild type (aa: 1–145); His-tag (cleaved yes); made in house; host or cells: E. coli BL21 DE3
Method: (§1) Following the co-crystal structure elucidation of SOD1 in complex with PB, we wanted to identify the effect of PB on the aggregation of SOD1^WT and its disease mutant, SOD1^A4V. A comprehensive analysis of the anti-aggregation propensity of PB was performed using a ThT-based fluorescence assay and analytical size-exclusion based chromatography (SEC) assay. We used Thioflavin-T, a β-sheet formation reporter, to assess the aggregation of SOD1. Time lag (tlag) is a kinetic parameter used to evaluate the lag phase of fibrillation. Fibril elongation was used to evaluate the rate of β sheet formation. […] Similar effects on lag time are also observed for SOD1^A4V. […] Moreover, ThT-based aggregation assays were also performed for the PB site-specific mutants, SOD1^A123F, SOD1^K9F, SOD1^L42R, and SOD1^G10P (S4a, S4c, S4e and S4g Fig). As expected based on the abovementioned MST results, the aggregation analysis is inconclusive as these mutants, which correspond to the ligand binding residues, cause a loss of protein-ligand interactions.
(§2) Fig 6 Aggregation studies of metallated and reduced SOD1^WT and SOD1^A4V on treatment with PB. ThT fluorescence was monitored during the co-incubation of metallated SOD1^WT (50 μM) (a) or SOD1^A4V (50 μM) (b) with PB at 1:30 molar ratio at 37 °C with continuous shaking, under reduced conditions. The values were normalized to the maximal ThT intensity elicited by SOD1^WT or SOD1^A4V and fitted to a Boltzmann sigmoidal equation. The control and PB-treated species were compared to analyse the effects of PB on the aggregation of SOD1^WT and SOD1^A4V. Error bars indicate the standard deviation. Analytical SEC of metallated SOD1^WT (50 μM) (c) and SOD1^A4V (50 μM) (d) with PB were analyzed under reducing conditions before and after 24 hrs and 48 hrs incubation at 37 °C. The first peak eluting at the volume was denoted as oligomerized SOD1^WT/SOD1^A4V (L). The second, third, and fourth peaks were calculated as trimer (T), dimer (D), and monomer (M) species of SOD1^WT/SOD1^A4V running at 14.5 ml, 15.7 ml, and 16.5 ml, respectively. […] The monomer (M), dimer (D), trimer (T), and large aggregate (L) species are shown as green, purple, red, and black dotted lines, respectively. All the experiments were performed for n = 3 biological replicates.
Fig 7 Aggregation studies of de-metallated and reduced SOD1^WT and SOD1^A4V on treatment with PB. ThT fluorescence was monitored during the co-incubation of de-metallated SOD1^WT (50 μM) (a) or SOD1^A4V (50 μM) (b) with PB at 1:30 molar ratio at 37 °C with continuous shaking, under reduced conditions. The values were normalized to the maximal ThT intensity elicited by SOD1^WT or SOD1^A4V and fitted to a Boltzmann sigmoidal equation. The control and PB-treated species were compared to analyse PB’s effects on the aggregation of SOD1^WT and SOD1^A4V. Analytical SEC of de-metallated SOD1^WT (50 μM) (a) and SOD1^A4V (50 μM) (b) with PB were analysed under reducing conditions before and after 24 hrs and 48 hrs incubation at 37 °C. The first peak eluting at the volume was denoted as oligomerized SOD1^WT (L) runs at 9.2 ml. The second, third, and fourth peaks were calculated as trimer (T), dimer (D), and monomer (M) species of SOD1^WT/SOD1^A4V running at 14.5 ml, 15.7 ml, and 16.5 ml, respectively. […] In the case of SOD1^A4V, PB eliminates the formation of large aggregates compared to the control (48hrs-EC, EC represents control with EDTA). […]

[3] = molecular target: T1, SOD1^A4V; experiment: Thioflavin T (ThT) fluorescence aggregation assay, SOD1^A4V; details: for kapp / t50 / tlag: 37 °C, reduced conditions
Method: as §1, §2
Fig 7 Aggregation studies of de-metallated and reduced SOD1^WT and SOD1^A4V on treatment with PB. ThT fluorescence was monitored during the co-incubation of de-metallated SOD1^WT (50 μM) (a) or SOD1^A4V (50 μM) (b) with PB at 1:30 molar ratio at 37 °C with continuous shaking, under reduced conditions. The values were normalized to the maximal ThT intensity elicited by SOD1^WT or SOD1^A4V and fitted to a Boltzmann sigmoidal equation. The control and PB-treated species were compared to analyse PB’s effects on the aggregation of SOD1^WT and SOD1^A4V. Analytical SEC of de-metallated SOD1^WT (50 μM) (a) and SOD1^A4V (50 μM) (b) with PB were analysed under reducing conditions before and after 24 hrs and 48 hrs incubation at 37 °C. The first peak eluting at the volume was denoted as oligomerized SOD1^WT (L) runs at 9.2 ml. The second, third, and fourth peaks were calculated as trimer (T), dimer (D), and monomer (M) species of SOD1^WT/SOD1^A4V running at 14.5 ml, 15.7 ml, and 16.5 ml, respectively. […] In the case of SOD1^A4V, PB eliminates the formation of large aggregates compared to the control (48hrs-EC, EC represents control with EDTA). The monomer (M), dimer (D), trimer (T), and large aggregate (L) species are shown as green, purple, red, and black dotted lines, respectively. All the experiments were performed for n = 3 biological replicates.
Aggregation assays were performed on SOD1^WT, the disease mutant A4V, and ligand-binding site-specific mutants to check the anti-aggregation activity of PB on the former. […] The ThT assay for the SOD1 aggregation was carried out per the recently published protocol. […]

[4] = De-metallated (5 mM EDTA) SOD1^WT 50 μM with PB at 1:30 molar ratio
[5] = Metallated SOD1^WT 50 μM with PB at 1:30 molar ratio
[6] = De-metallated (5 mM EDTA) SOD1^A4V 50 μM with PB at 1:30 molar ratio
[7] = Metallated SOD1^A4V 50 μM with PB at 1:30 molar ratio

T2 sequence (P00441 whole entry): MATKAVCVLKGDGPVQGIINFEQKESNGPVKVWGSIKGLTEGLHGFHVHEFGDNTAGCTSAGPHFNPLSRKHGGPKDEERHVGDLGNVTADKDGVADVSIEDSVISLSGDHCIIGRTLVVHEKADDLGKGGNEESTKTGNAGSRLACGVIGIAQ
T1 sequence (P00441 whole entry A5V): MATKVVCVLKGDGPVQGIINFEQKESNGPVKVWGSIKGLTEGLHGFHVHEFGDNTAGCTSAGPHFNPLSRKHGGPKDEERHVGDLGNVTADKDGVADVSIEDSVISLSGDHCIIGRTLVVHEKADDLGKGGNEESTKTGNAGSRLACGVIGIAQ

trimer population (SEC) ([1]; De-metallated (EDTA) SOD1^A4V 50 μM, PB 30X, reducing conditions): reduces the trimer population | kapp [2, 4]: 0.374 h⁻¹ | t50 [2, 4]: 1.851 h | tlag [2, 4]: 1.84 h | kapp [2, 5]: 0.233 h⁻¹ | t50 [2, 5]: 2.976 h | kapp [3, 6]: 0.05 h⁻¹ | t50 [3, 6]: 13.57 h | tlag [3, 6]: 13.55 h | kapp [3, 7]: 0.07 h⁻¹ | t50 [3, 7]: 10.45 h | tlag [3, 7]: 10.44 h | ThT signal of SOD1^A4V aggregation ([3]; Metallated SOD1^A4V 50 μM, PB 1:30, versus control): drastic reduction in the ThT signal
Structure (SMILES): CCCC[C@H](C)/C=C(C)/C=C/C(=O)O [PB, (S, 2E, 4E)-4,6-dimethyldeca-2,4-dienoic acid]
trimer populations (SEC) ([1]; Metallated SOD1^A4V 50 μM, PB 60X, reducing conditions): trimer populations were significantly reduced | formation of toxic trimer species (SEC) ([1]; Metallated SOD1^A4V 50 μM, PB at a ratio of 1:30, reducing conditions): visibly reduced the formation of toxic trimer species
